In patent US11207285B2, “Diabetes treatment regimens using alpha, alpha-substituted long-chain amphipathic carboxylates” (SYNDROMEX LTD., priority 2016, dated 2021):

Tests used:
[1] = test system: fully differentiated 3T3L1 adipocytes; assay: glucose uptake in 3T3L1 adipocytes; type: cell-based; details: insulin as positive control
Description: The compound 2,2,15,15-tetramethylhexadecane-1,16-dioic acid (also designated M16αα), and also the compounds […] (M18αα) and 2,2,19,19-tetramethyl-[…]-1,20-dioic acid (M20αα), were tested for their effect on glucose uptake and production, and the expression of glucose- and lipid-related genes in in vitro models. […] Inhibition of glucose production was tested in HepG2 human liver cells.

[2] = test system: cultured human HepG2 liver cells; assay: inhibition of lipoprotein production in HepG2 cells; type: cell-based
[3] = test system: animal models for T2D (e.g., db/db rats, rodents maintained on high-fat diet); assay: insulin sensitization, glucose lowering and energy expenditure in animal models for T2D; type: in vivo
[4] = test system: animal models for T2D (e.g., rodents maintained on high-fat diet); assay: as above; type: in vivo
half-life in humans = type: in vivo
Text: The half-life (T1/2) of Medica compounds in humans differs considerably from their half-life in model animals. […] This difference in half-life could not be expected, and is of considerable significance when designing a new treatment protocol for humans.

[5] = molecular target: T1, Hepatocyte nuclear factor 4-alpha (HNF4α) (Homo sapiens, UniProt P41235); assay: transcriptional activity of HNF4α
T1 sequence (P41235 1-474): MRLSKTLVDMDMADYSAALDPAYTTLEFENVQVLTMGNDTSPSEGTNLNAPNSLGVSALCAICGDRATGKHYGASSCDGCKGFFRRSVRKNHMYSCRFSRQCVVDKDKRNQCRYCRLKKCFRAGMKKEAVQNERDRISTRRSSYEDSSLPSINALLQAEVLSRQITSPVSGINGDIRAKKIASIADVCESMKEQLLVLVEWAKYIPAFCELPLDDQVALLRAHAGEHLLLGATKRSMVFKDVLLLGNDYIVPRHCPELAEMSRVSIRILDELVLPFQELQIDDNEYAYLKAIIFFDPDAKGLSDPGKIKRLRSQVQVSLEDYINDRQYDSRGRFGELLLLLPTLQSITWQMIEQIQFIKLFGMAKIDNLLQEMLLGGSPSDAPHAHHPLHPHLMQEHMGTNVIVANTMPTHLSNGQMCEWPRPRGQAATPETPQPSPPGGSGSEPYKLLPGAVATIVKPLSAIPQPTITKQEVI

Forkhead box O1 (FoxO1) = Forkhead box O1 (FoxO1) (Homo sapiens, UniProt Q12778); assay: transcriptional activity of FoxO1
[6] = 4-week M16αα study in T2D patients, trough plasma levels; type: in vivo, human; details: Cohort 1 patients, 40 mg once daily oral, 28-day dosing period
Description: Pre-dose blood samples to determine trough levels of M16αα were collected in lithium heparin tubes at the following dosing days: 1, 8, 15, 28, and EOS visit. Plasma M16αα concentrations have been presently processed for Cohort 1 patients only. […] Calculated PK parameters: Pre-dose Css.
Plasma concentrations of M16αα are determined by a validated LC/MS method. The lower and upper limits of quantitation for M16αα concentrations are 100 ng/mL and 5000 ng/mL, respectively. The assay is linear from 0.1-5 μg/mL. Dilution extends the range to 100 μg/mL

Forkhead box O1 (FoxO1), sequence (Q12778 whole entry, species assumed): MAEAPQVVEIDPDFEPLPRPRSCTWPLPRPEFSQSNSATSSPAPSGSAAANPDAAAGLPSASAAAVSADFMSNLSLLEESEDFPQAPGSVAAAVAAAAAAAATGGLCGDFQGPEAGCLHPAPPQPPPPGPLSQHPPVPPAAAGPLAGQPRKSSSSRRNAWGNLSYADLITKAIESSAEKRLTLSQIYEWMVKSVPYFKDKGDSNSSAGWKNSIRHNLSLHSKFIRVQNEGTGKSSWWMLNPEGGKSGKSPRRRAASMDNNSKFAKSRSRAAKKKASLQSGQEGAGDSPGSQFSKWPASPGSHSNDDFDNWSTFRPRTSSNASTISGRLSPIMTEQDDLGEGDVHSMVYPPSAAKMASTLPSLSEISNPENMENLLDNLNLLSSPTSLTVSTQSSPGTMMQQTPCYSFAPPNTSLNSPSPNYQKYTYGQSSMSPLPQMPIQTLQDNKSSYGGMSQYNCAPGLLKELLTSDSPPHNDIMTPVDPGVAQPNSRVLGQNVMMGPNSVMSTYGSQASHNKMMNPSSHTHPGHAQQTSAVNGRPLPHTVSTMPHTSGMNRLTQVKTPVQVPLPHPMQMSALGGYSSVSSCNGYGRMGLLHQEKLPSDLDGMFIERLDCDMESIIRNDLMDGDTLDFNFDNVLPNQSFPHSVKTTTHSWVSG

For `CC(C)(CCCCCCCCCCCCC(C)(C)C(=O)O)C(=O)O` [M16αα, 2,2,15,15-tetramethyl-hexadecane-1,16-dioic acid], which glucose uptake [1] is on record?
The glucose uptake was “increase glucose uptake”.

And the lipoprotein production [2]?
The lipoprotein production was “significant or full inhibition”.

And the “insulin-sensitizing and glucose-lowering efficacy” value [3]?
Its value is “potent insulin-sensitizing and glucose-lowering efficacy”.

What about the energy expenditure [4] of the same compound?
Its energy expenditure is “increased energy expenditure”.

What about the “half-life (T1/2)” value (half-life in humans) of the same compound?
Its value is 30 to 80 h.

And the half-life (half-life in humans; human, in vivo, as stated in PK evaluation, read-out: half-life)?
The half-life was 30 to 80 h.

And the “transcriptional activity of HNF4α” value [5]?
The value was “suppressing”.

And the “transcriptional activity of FoxO1” value (Forkhead box O1 (FoxO1))?
Its value is “suppressing”.

What about the “trough M16αα plasma concentrations” value [6] of the same compound?
Its value is “increased progressively throughout the 28-day dosing period”.
